Source: patent US20250134866A1, “COMMENSAL SIGNALLING COMPOUNDS FOR TREATING OR PREVENTING MICROBIOME DYSFUNCTION IN THE SKIN OR MOUTH” (priority 2022, published 2025)

Key:
[1] = tested on: IL-8; experiment: Release of inflammatory cytokine IL-8 by human keratinocytes after treatment with S. aureus; assay type: cell-based; conditions: 24 hours pre-treatment, keratinocytes infected with S. aureus at multiplicity of infection of 10, 24 hours
Protocol: The present example examines the release of the inflammatory cytokine IL-8 by human keratinocytes after treatment with S. aureus. Although S. aureus is associated with atopic dermatitis, IL-8 […] as inflammatory cytokine in this disease (Li and Yosipovitch, 2020).
Infection of a keratinocyte culture at a multiplicity of infection of 10 increased the amount of IL-8 from low levels in uninfected cultures to an increase of 6,044% in 24 hours in infected cultures. Pre-treatment of the keratinocyte cultures with EGT for 24 hours reduced the release of IL-8 by 61% for 0.005% EGT, 75% for 0.01% EGT, and 82% for 0.05% EGT.

[2] = tested on: P. aeruginosa ATCC 27853; experiment: Growth of P. aeruginosa culture in presence of EGT (optical density, 24 hours); assay type: cell-based; conditions: 0.001%, 0.05% or 0.1% (w/v) added upon inoculation, MH media, 37 C, OD monitored 24 hours
Protocol: (§1) The growth of two bacterial strains, one commensal containing EGT-synthetic genes (P. aeruginosa ATCC 27853) and one pathogen lacking such genes (S. Aureus ATCC 6538) were compared in the presence and absence of EGT. Each strain was adjusted to an OD600 of 0.2 in MH culture media, inoculated into 96-well plates and incubated at 37 C. The growth of the cultures were monitored for optical density for 24 hours. The S. aureus and P. aeruginosa cultures reached stationary phase after 15 and 2 hours, respectively. Addition of L-ergothioneine (99+% purity) at 0.001%, 0.05% or 0.1% (w/v) upon inoculation had no effect on the growth rate of either culture.

[3] = Skin redness of atopic dermatitis lesions, topical formula, dermospectrophotometer; assay type: in vivo, human; conditions: placebo 9%
Protocol: The present example tests the effect of EGT on skin inflammation in subjects with atopic dermatitis lesions.
Three topical formulas were prepared using a commercial formulation of EGT called MC-2, which is a granulated preparation of EGT mixed into mannitol. One formulation was a placebo, with only mannitol added. The second was a low dose formula containing EGT in the form of MC-2 added to a final concentration of 0.005% EGT (w/w). The third was a high dose formulation containing EGT in the form of MC-2 added to a final concentration of 0.05% EGT (w/w).
Subjects with patches of atopic dermatitis were recruited to the study and 16 were assigned to each of three arms: placebo, low dose EGT and high dose EGT. The subjects were 9 males and 39 females, representing each Fitzpatrick Skin Type (I-VI) in age range from 21 to 73 years old. The redness of the skin lesion was measured using a dermospectrophotometer and compared to adjacent uninvolved skin to determine a redness measure. The subjects used the test formula on the skin lesion twice a day for 4 weeks. The lesions were again measured with a dermospectrophotometer.

[4] = tested on: S. Aureus ATCC 6538; experiment: Growth of S. aureus culture in presence of EGT (optical density, 24 hours); assay type: cell-based; conditions: 0.001%, 0.05% or 0.1% (w/v) added upon inoculation, MH media, 37 C, OD monitored 24 hours
Protocol: as §1

In the case of C[N+](C)(C)[C@@H](Cc1c[nH]c(=S)[nH]1)C(=O)[O-] [EGT], the “reduction of release of IL-8” value ([1]; 0.005% EGT) is reported as 61%, the “reduction of release of IL-8” value ([1]; 0.01% EGT) is reported as 75% and the “reduction of release of IL-8” value ([1]; 0.05% EGT) is reported as 82%. For the same compound, the “effect on the growth rate of culture” value [2] was “no effect”, the “redness reduction of skin lesion” value ([3]; high dose topical formula, 0.05% EGT (w/w) as MC-2, twice a day for 4 weeks) was 50% and the “redness reduction of skin lesion” value ([3]; low dose topical formula, 0.005% EGT (w/w) as MC-2, twice a day for 4 weeks) was 66%. The “effect on the growth rate of culture” value [4] was “no effect”.
